According to US20230147712A1, “OLEYL PHOSPHOCHOLINE CONTAINING GRANULATES” (Oblita Therapeutics BVBA, priority 2020, published 2023):

Test: Hygroscopicity of oleyl phosphocholine (water absorption)
Assay type: physicochemical
Conditions: exposed to 90% RH at 25° C.
Description: The development of solid dosage formulations of oleyl phosphocholine, and specifically the development of tablets, is complicated by the low melting point (56.3° C.), high hygroscopicity (absorbing 41.67 weight percent of water when exposed to 90% RH at 25° C.) and irregular particle size and shape of oleyl phosphocholine. These characteristics make it hard to obtain homogeneous, dry powders for tableting.

CCCCCCCC/C=C\CCCCCCCCOP(=O)([O-])OCC[N+](C)(C)C [oleyl phosphocholine]
hygroscopicity: water absorbed: 41.67 weight percent
